# US20060247129A1, “Surfactant compounds and agrochemical compositions” (Imperial Chemical Industries PLC, priority 2003, published 2006)
# Structures can show the parent of a compound that is named as a salt.
# Experiments:
# Test in all cases: glasshouse herbicide spray test, % weed control, adjuvant with glyphosate potassium salt
# Format in all cases: in vivo
# Conditions in all cases: adjuvant 0 % v/v, 19 days after treatment
# Solanum nigra = system: Solanum nigra
# Procedure: (§1) The compound of Synthesis Example SE1 was tested as an adjuvant with glyphosate potassium salt, mixing the glyphosate and adjuvant in a tank mix using concentrations of glyphosate from 0.125 to 2 g.l-1 and of adjuvant from 0.003125 to 0.2% v/v. The tank mixes were sprayed as a herbicide on a variety of test species at an application rate of 200 l.ha^−1 to give application rates of glyphosate of from 25 to 400 g (active ingredient).ha^−1. The plants were grown in a warm glasshouse and assessed 19 days after treatment for % control—the mean of three replicates for visually assessed % weed control, relative to unsprayed plants of each species in the same test.
# (§2) Example AE1 was repeated but using the compound made in Synthesis Example SE4 as the adjuvant.
# Sorghum halepense = system: Sorghum halepense
# Procedure: as §1, §2
# Abutilon Theophrasti = system: Abutilon Theophrasti
# Procedure: as §1, §2
# Sida Spinosa = system: Sida Spinosa
# Procedure: as §1, §2
# Echinochloa crus-galli = system: Echinochloa crus-galli
# Procedure: as §1, §2
# Portulaca oleracea = system: Portulaca oleracea
# Procedure: as §1, §2
smiles,measurement,setting,value
"O=C(O)CNCP(=O)(O)O [Glyphosate, glyphosate potassium salt, reference compound]",% control SOLNI,Solanum nigra; glyphosate 50 g ai/ha,37%
same,% control SOLNI,Solanum nigra; glyphosate 100 g ai/ha,65%
same,% control SOLNI,Solanum nigra; glyphosate 200 g ai/ha,77%
same,% control SOLNI,Solanum nigra; glyphosate 400 g ai/ha,78%
same,% control SORHA,Sorghum halepense; glyphosate 25 g ai/ha,8%
same,% control SORHA,Sorghum halepense; glyphosate 50 g ai/ha,47%
same,% control SORHA,Sorghum halepense; glyphosate 100 g ai/ha,79%
same,% control SORHA,Sorghum halepense; glyphosate 200 g ai/ha,82%
same,% control ABUTH,Abutilon Theophrasti; glyphosate 200 g ai/ha,53%
same,% control ABUTH,Abutilon Theophrasti; glyphosate 400 g ai/ha,73%
same,% control SIDSP,Sida Spinosa; glyphosate 50 g ai/ha,30%
same,% control SIDSP,Sida Spinosa; glyphosate 100 g ai/ha,35%
same,% control SIDSP,Sida Spinosa; glyphosate 200 g ai/ha,58%
same,% control SIDSP,Sida Spinosa; glyphosate 400 g ai/ha,75%
same,% control ECHCG,Echinochloa crus-galli; glyphosate 25 g ai/ha,21%
same,% control ECHCG,Echinochloa crus-galli; glyphosate 50 g ai/ha,47%
same,% control ECHCG,Echinochloa crus-galli; glyphosate 100 g ai/ha,67%
same,% control ECHCG,Echinochloa crus-galli; glyphosate 200 g ai/ha,82%
same,% control POROC,Portulaca oleracea; glyphosate 50 g ai/ha,3%
same,% control POROC,Portulaca oleracea; glyphosate 100 g ai/ha,10%
same,% control POROC,Portulaca oleracea; glyphosate 200 g ai/ha,22%
same,% control POROC,Portulaca oleracea; glyphosate 400 g ai/ha,38%
